{
  "source": "patent US6677358B1",
  "about": "“NIDDM regimen” (Novo Nordisk A/S, priority 1997, dated 2004)",
  "key": {"[1]": {"system": "NIDDM patients inadequately controlled on metformin alone", "conditions": "for Change in FPG / Change in HbA1c (%) / Change in C peptide / Change in fasting insulin (mU/l): mean ± SEM; for Change in FPG / Change in HbA1c (%): baseline to end of 3-month maintenance period; for Change in C peptide / Change in fasting insulin (mU/l): baseline to end of maintenance treatment period"}, "NIDDM patients": {"system": "NIDDM patients", "experiment": "Repaglinide 3 times daily before meals (REP3) vs twice daily (REP2), 4-week double-blind study", "conditions": "for Fasting blood glucose (mean ±SEM) after 4 weeks: doubled after 2 weeks", "quoted_text": "The potential impact of tailoring insulin release to meal in-take was investigated in a study comparing 3 times daily dosing with repaglinide just before meals to the same dosage administered twice daily. Eighteen OHA-naive NIDDM patients entered a 4-week, single centre, double-blind study, and were randomised to either 0.25 mg repaglinide before breakfast, lunch and dinner (REP3), or 0.5 mg before breakfast, placebo at lunch, and 0.25 mg before dinner (REP2). After two weeks the doses were doubled.\nAfter 2 weeks, the doses were doubled to 0.5 mg before each meal (REP3) and 1 mg+0.5 mg (REP2)."}, "[2]": {"system": "patients with type 2 diabetes", "experiment": "Flexible meal-related dosing study of repaglinide (mixed vs fixed regimen), open-label parallel group", "type": "in vivo, human", "conditions": "for Mean fructosamine: 1 mg preprandially, end of 21 days", "procedure": "In a single-centre, randomised, open-label, parallel group comparison study it was investigated whether repaglinide given preprandially will maintain glycaemic control in patients who skip a meal (lunch) or have an extra meal (bedtime snack) [mixed regimen] as compared with those who have three regular meals [fixed regimen].\nA total of 25 diet-treated patients with type 2 diabetes were enrolled (18 men and 7 women) and given a fixed 1 mg dose of repaglinide preprandially (therapeutic dose range: 0.5-4 mg). After one week of stabilisation patients were randomised to the mixed or fixed regimen for a period of 21 days if blood glucose was >140 mg/dl."}, "[3]": {"experiment": "Half-life (duration of action) of repaglinide", "conditions": "in vivo"}},
  "note": "Values joined by “and” are separate entries in the source; they are usually repeats but may differ in a detail not shown here. Equal values may be shown once. Read-outs that look alike come from different tables or passages of the source.",
  "data": [
    {"compound": "CN(C)C(=N)N=C(N)N", "note": "[Metformin, metformin]", "values": [
      {"measurement": "Change in mean body weight during the study", "setting": "[1]; in vivo", "result": "-0.86 ± 0.51", "unit": "kg"},
      {"measurement": "Frequency of drug-related adverse events", "setting": "[1]; in vivo", "result": 14.8, "unit": "%"},
      {"measurement": "Gastrointestinal side effects", "setting": "[1]; in vivo", "result": 7.4, "unit": "%"},
      {"measurement": "Patients reporting hypoglycemic episodes (number)", "setting": "[1]; in vivo", "result": "none"},
      {"measurement": "Change in FPG", "setting": "[1]", "result": -0.25, "unit": "mmol/L"},
      {"measurement": "Change in HbA1c (%)", "setting": "[1]", "result": "−0.33", "unit": "%"},
      {"measurement": "Change in FPG", "setting": "[1]; listed as MET", "result": -0.25, "unit": "mmol/L"},
      {"measurement": "Change in HbA1c (%)", "setting": "[1]; listed as MET", "result": "−0.33", "unit": "%"},
      {"measurement": "Change in C peptide", "setting": "[1]", "result": 0.02, "unit": "nmol/L"},
      {"measurement": "Change in fasting insulin (mU/l)", "setting": "[1]", "result": "1.05 ± 1.60", "unit": "mU/l"}
    ]},
    {"compound": "CCOc1cc(CC(=O)N[C@@H](CC(C)C)c2ccccc2N2CCCCC2)ccc1C(=O)O", "note": "[Repaglinide, (S)-(+)-2-ethoxy-4-[2-[[3-methyl-1-[2-(1-piperidinyl)phenyl]butyl]amino]-2-oxo-ethyl]benzoic acid]", "values": [
      {"measurement": "Blood glucose (AUC0-24 h) after 4 weeks", "setting": "NIDDM patients; REP2 (twice daily)", "result": 8.91, "unit": "mmol/L"},
      {"measurement": "Increase in normed AUC0-24 h for plasma insulin", "setting": "NIDDM patients; REP2, after 4 weeks", "result": 20, "unit": "%"},
      {"measurement": "Fasting blood glucose (mean ±SEM) after 4 weeks", "setting": "NIDDM patients; REP2: 0.5 mg before breakfast + 0.25 mg before dinner, baseline 11.3±0.73, 11.2", "result": "9.6 mmol/L and 9.6 ± 0.7 mmol/L"},
      {"measurement": "HbA1c (±SEM) after 4 weeks", "setting": "NIDDM patients; REP2, baseline 7.12±0.24, decrease non-significant", "result": "6.8% and 6.84±0.34%"},
      {"measurement": "Blood glucose (AUC0-24 h) after 4 weeks", "setting": "NIDDM patients; REP3 (three times daily before meals), P<0.05 vs REP2", "result": 7.00, "unit": "mmol/L"},
      {"measurement": "Increase in normed AUC0-24 h for plasma insulin", "setting": "NIDDM patients; REP3, after 4 weeks", "result": "35-40%"},
      {"measurement": "Fasting blood glucose (mean ±SEM) after 4 weeks", "setting": "NIDDM patients; REP3: 0.25 mg, before each of three main meals, baseline 11.1±1.24, 11.2", "result": "8.4 mmol/L and 8.4 ± 1.01 mmol/L"},
      {"measurement": "HbA1c (±SEM) after 4 weeks", "setting": "NIDDM patients; REP3, baseline 7.51±0.78, P=0.004", "result": "6.5% and 6.51±0.64%"},
      {"measurement": "Postprandial blood glucose, lower with REP3 than with REP2", "setting": "NIDDM patients; after 4 weeks, P<0.05", "result": "about 2.5 mmol/l"},
      {"measurement": "Normed AUC0-24 h for plasma C-peptide", "setting": "NIDDM patients; both groups (REP2, REP3), after 4 weeks", "result": "increased in both groups"},
      {"measurement": "Plasma insulin before the next meal", "setting": "NIDDM patients; both treatment groups", "result": "decreased to pre-treatment levels"},
      {"measurement": "Plasma insulin during the night in comparison with pre-treatment levels", "setting": "NIDDM patients; both treatment groups", "result": "no increase"},
      {"measurement": "Non-serious adverse events", "setting": "NIDDM patients; either treatment group", "result": "mild hypoglycemic episodes and one case of influenza"},
      {"measurement": "Serious adverse events", "setting": "NIDDM patients; either treatment group", "result": "No serious adverse events"},
      {"measurement": "Blood glucose AUC over 24 hours, difference between fixed and mixed groups", "setting": "[2]; 37-point blood glucose profile", "result": "not statistically significant"},
      {"measurement": "Hypoglycaemic episodes or serious adverse events", "setting": "[2]; both regimens", "result": "no hypoglycaemic episodes or serious adverse events were reported"},
      {"measurement": "Mean fructosamine", "setting": "[2]; fixed regimen (three regular meals), decreased from 3.10, p<0.05", "result": 2.68, "unit": "mmol/L"},
      {"measurement": "Tolerability of dose regimens", "setting": "[2]; in vivo", "result": "well tolerated"},
      {"measurement": "Blood glucose levels when lunch was omitted", "setting": "[2]; mixed regimen", "result": "remained stable until next meal"},
      {"measurement": "Mean fructosamine", "setting": "[2]; mixed regimen (skipped lunch or extra bedtime snack), decreased from 3.37, p<0.05", "result": 2.85, "unit": "mmol/L"},
      {"measurement": "Mean fasting blood glucose (FBG)", "setting": "[2]; value decreased to, both groups (fixed and mixed regimen)", "result": "approximately 120 mg/dl"},
      {"measurement": "T½ (short duration of action)", "setting": "[3]", "result": "one"},
      {"measurement": "Frequency of drug-related adverse events", "setting": "[1]; human, in vivo", "result": 25.0, "unit": "%"},
      {"measurement": "Gastrointestinal side effects", "setting": "[1]; human, in vivo", "result": 3.6, "unit": "%"},
      {"measurement": "Patients reporting hypoglycemic episodes (%)", "setting": "[1]; human, in vivo", "result": 17.9, "unit": "%"},
      {"measurement": "Patients reporting hypoglycemic episodes (number)", "setting": "[1]; human, in vivo", "result": 3, "unit": "patients"},
      {"measurement": "Change in mean body weight during the study", "setting": "[1]; in vivo", "result": "+2.98±0.49 kg"},
      {"measurement": "Change in FPG", "setting": "[1]", "result": 0.49, "unit": "mmol/L"},
      {"measurement": "Change in HbA1c (%)", "setting": "[1]", "result": "−0.38", "unit": "%"},
      {"measurement": "Change in FPG", "setting": "[1]; listed as REP", "result": 0.49, "unit": "mmol/L"},
      {"measurement": "Change in HbA1c (%)", "setting": "[1]; listed as REP", "result": "−0.38", "unit": "%"},
      {"measurement": "Change in C peptide", "setting": "[1]", "result": 0.18, "unit": "nmol/L"},
      {"measurement": "Change in fasting insulin (mU/l)", "setting": "[1]", "result": "4.04 ± 1.56", "unit": "mU/l"}
    ]}
  ]
}
